The values that follow come from patent US7205295B2, “Benzoxazin-3-ones and derivatives thereof as therapeutic agents” (Warner-Lambert Company LLC, priority 2002, dated 2007).

In this experiment the target is T1, PI3Kγ (p101/p110γ protein) (Homo sapiens, UniProt P48736).
T1 construct: HA; made in house; host or cells: Spodoptera frugiperda (Sf9) cells, baculovirus co-infection
Put plainly: PI3Kγ In Vitro Kinase Assay. Type of experiment: biochemical. The settings on record: purified recombinant p101/p110γ with G protein β1/γ2 subunits; 20 μM ATP, 25 μM PIP2; 20 minutes at room temperature. How it is done:
Spodtera frugiperda cells, grown in ESF921 media, were coinfected with baculovirus expressing a glu-tagged p101 and baculovirus expressing an HA-tagged p110γ, at a 3:1 ratio of p101 baculovirus to p110γ baculovirus. Sf9 cells were grown to 1×10^7 total cells/mL in 10L bioreactors and harvested 48-72 hours post infection. Samples of infected cells were then tested for expression of p101/p110γ PI3 kinase by immunoprecipitation and Western Blot analysis methods (see below). […] NaCl was added to 150 mM, and sodium cholate was added to 1% and mixed for another 45 minutes. The lysates were clarified by centrifugation for 25 minutes at 14,000 rpm. The lysates were then loaded over anti-glu-linked Protein-G Sepaharose beads (Covance Research Products, Richmond, Calif.) using 20 mL resin/50 g cell paste. […] PI3Kγ was eluted with 6 column volumes of wash buffer that contain 100 μg/mL of a peptide that competes for binding of the glu tag. […] The fractions were stored at -80° C. until further use. Spodtera frugiperda cells were coinfected with baculovirus expressing a glu-tagged G protein β1 and baculovirus expressing a G protein […] at a 1:1 ratio of glu-tagged G protein β1 baculovirus to G protein β2 baculovirus. Sf9 cells are grown in 10 L bioreactors and harvested 48-72 hours post infection. Samples of infected cells were tested for G protein β1/β2 expression by Western Blot analysis, as described below. Cell lysates were homogenized and loaded onto a column of glu-tagged beads as in Biological Example 1 and competed off the column with a glu peptide as described in Biological Example 1. The inhibitory properties of the compounds in Table 1 were assayed in an in vitro PI3K assay. In a 96-well polypropylene plate, each well was spotted with 2 μL of […] the desired final concentration of compound in DMSO. Purified recombinant p101/p110γ protein (0.03 μg; 2.7 nM) and G protein β1/γ2 subunits (0.09 μg; 57.7 nM) for each reaction was combined in the assay buffer (30 mM HEPES, 100 mM NaCl, 1 mM EGTA, and 1 mM DTT). ATP and [γ-^32P-ATP] (0.09 μCi) were added to this mixture so that the final ATP concentration in the reaction was 20 μM. Lipid micelles were formed by sonicating phosphatidylinositol-4,5-diphosphate (PIP2), phosphatidylethanolamine (PE), and Na-cholate in the assay buffer for 10 minutes, adding MgCL2 and incubating on ice for 20 minutes, for final concentrations of 25 μM PIP2, 300 [M PE, 0.02% Na-cholate, and 10 mM MgCl2 in the reaction. The reactions were started by adding equal volumes lipid and enzyme mixture in a total volume of 50 μL, allowed to run for 20 minutes at room temperature, and stopped with 100 μL 75 mM H3PO4. The lipid product was transferred to a glass fiber filter plate and washed with 75 mM H3PO4 several times. The presence of radioactive lipid product (PIP3) was measured by adding Wallac Optiphase mix to each well and counting in a Wallac 1450 Trilux plate reader (PerkinElmer Life Sciences Inc., Boston, Mass. 02118).

T1 sequence (P48736 whole entry, species assumed): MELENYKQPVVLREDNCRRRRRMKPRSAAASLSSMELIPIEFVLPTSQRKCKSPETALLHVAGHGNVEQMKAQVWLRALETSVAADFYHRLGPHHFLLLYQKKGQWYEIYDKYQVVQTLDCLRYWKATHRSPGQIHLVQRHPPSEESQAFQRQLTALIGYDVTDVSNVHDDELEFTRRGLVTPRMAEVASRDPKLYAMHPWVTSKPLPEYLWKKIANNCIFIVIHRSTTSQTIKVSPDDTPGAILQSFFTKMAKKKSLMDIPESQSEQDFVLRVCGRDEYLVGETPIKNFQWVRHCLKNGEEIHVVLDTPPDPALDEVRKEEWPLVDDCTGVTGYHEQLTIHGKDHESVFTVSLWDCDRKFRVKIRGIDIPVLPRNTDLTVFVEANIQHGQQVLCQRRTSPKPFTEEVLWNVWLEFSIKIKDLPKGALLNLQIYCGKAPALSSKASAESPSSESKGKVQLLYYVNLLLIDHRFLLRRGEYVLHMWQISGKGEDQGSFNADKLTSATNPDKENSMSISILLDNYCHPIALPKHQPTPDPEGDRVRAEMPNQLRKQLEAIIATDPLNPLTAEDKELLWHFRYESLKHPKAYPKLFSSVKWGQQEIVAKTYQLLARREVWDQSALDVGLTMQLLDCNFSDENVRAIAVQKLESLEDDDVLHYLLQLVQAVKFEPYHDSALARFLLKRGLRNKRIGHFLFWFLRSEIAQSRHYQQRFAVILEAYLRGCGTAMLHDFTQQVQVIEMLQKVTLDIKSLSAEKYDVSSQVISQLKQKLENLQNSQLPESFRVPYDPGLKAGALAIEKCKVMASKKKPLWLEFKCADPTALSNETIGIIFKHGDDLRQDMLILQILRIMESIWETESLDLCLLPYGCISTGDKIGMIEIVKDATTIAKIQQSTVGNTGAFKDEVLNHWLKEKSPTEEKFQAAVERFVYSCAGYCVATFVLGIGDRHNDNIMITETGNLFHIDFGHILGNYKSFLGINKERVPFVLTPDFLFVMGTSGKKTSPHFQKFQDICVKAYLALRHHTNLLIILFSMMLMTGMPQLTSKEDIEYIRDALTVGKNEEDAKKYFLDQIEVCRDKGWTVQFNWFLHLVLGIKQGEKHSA
T1 sequence (Q8WYR1 whole entry partner, species assumed): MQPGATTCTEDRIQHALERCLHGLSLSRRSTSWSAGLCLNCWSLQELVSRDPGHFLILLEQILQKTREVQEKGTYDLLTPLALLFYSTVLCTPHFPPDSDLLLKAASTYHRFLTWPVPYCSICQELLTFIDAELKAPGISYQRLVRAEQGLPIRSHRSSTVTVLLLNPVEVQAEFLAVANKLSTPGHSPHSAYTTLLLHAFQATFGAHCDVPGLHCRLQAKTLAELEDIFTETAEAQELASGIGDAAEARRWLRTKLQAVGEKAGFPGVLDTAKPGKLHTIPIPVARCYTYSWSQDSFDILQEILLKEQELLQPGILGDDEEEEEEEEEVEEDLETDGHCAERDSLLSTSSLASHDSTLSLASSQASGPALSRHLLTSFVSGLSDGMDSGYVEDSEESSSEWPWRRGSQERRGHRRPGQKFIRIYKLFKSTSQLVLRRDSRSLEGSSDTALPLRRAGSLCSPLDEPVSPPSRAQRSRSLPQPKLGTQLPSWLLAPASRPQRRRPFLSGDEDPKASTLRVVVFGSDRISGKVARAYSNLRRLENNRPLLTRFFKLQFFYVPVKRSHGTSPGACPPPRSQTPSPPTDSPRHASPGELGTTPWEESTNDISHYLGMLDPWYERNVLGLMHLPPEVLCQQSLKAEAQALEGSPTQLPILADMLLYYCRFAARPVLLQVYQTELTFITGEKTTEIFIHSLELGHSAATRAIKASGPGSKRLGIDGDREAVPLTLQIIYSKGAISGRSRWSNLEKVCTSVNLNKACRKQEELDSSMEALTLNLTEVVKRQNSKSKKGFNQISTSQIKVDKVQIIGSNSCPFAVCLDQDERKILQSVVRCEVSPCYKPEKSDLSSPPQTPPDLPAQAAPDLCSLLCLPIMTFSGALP

Consider `COc1cc(CN2C(=O)COc3ccc(C=C4SC(=S)NC4=O)cc32)cc(OC)c1` [Example 26, 4-(3,5-Dimethoxy-benzyl)-6-(4-oxo-2-thioxo-thiazolidin-5-ylidenemethyl)-4H-1,4-benzoxazin-3-one], for which the IC50 was 9 nM.
As for `C[C@@H]1CCC[C@H](C)N1Cc1ccc(CN2C(=O)COc3ccc(C=C4SC(=S)NC4=O)cc32)cc1` [Example 27, 4-[4-((2S, 6R)-2,6-Dimethyl-piperidin-1-ylmethyl)-benzyl]-6-(4-oxo-2-thioxo-thiazolidin-5-ylidenemethyl)-4H-1,4-benzoxazin-3-one], the figure is 3 nM; as for `Cc1cc(C)cc(CN2C(=O)COc3c(C)cc(C=C4SC(=S)NC4=O)cc32)c1` [Example 28, 4-(3,5-Dimethyl-benzyl)-8-methyl-6-(4-oxo-2-thioxo-thiazolidin-5-ylidenemethyl)-4H-1,4-benzoxazin-3-one], 3 nM; as for `O=C1NC(=S)SC1=Cc1ccc2c(c1)N(Cc1cc(C(F)(F)F)cc(C(F)(F)F)c1)C(=O)CO2` [Example 29, 4-(3,5-Bis-trifluoromethyl-benzyl)-6-(4-oxo-2-thioxo-thiazolidin-5-ylidenemethyl)-4H-1,4-benzoxazin-3-one], 31 nM.
As for `Cc1cc(C)cc(CCN2C(=O)COc3ccc(C=C4SC(=S)NC4=O)cc32)c1` [Example 30, 4-[2-(3,5-Dimethylphenyl)-ethyl]-6-(4-oxo-2-thioxo-thiazolidin-5-ylidenemethyl)-4H-1,4-benzoxazin-3-one], the figure is 2 nM; as for `Cc1cccc(C)c1CN1C(=O)COc2ccc(C=C3SC(=S)NC3=O)cc21` [Example 31, 4-(2,6-Dimethyl-benzyl)-6-(4-oxo-2-thioxo-thiazolidin-5-ylidenemethyl)-4H-1,4-benzoxazin-3-one], 83 nM.
With `CC(C)(C)c1cc(CN2C(=O)COc3ccc(C=C4SC(=S)NC4=O)cc32)cc(C(C)(C)C)c1` [Example 32, 4-(3,5-Di-tert-butyl-benzyl)-6-(4-oxo-2-thioxo-thiazolidin-5-ylidenemethyl)-4H-1,4-benzoxazin-3-one], the IC50 was found to be 12 nM.
For `CN1CCN(Cc2ccc(CN3C(=O)COc4ccc(C=C5SC(=S)NC5=O)cc43)cc2)CC1` [Example 33, 4-[4-(4-Methyl-piperazin-1-ylmethyl)-benzyl]-6-(4-oxo-2-thioxo-thiazolidin-5-ylidenemethyl)-4H-1,4-benzoxazin-3-one], the IC50 is 4 nM.
As for `O=C1NC(=S)SC1=Cc1ccc2c(c1)N(CCCc1ccccc1)C(=O)CO2` [Example 34, 6-(4-Oxo-2-thioxo-thiazolidin-5-ylidenemethyl)-4-(3-phenyl-propyl)-4H-1,4-benzoxazin-3-one], the figure is 3 nM; as for `O=C1NC(=S)SC1=Cc1ccc2c(c1)N(Cc1ccc(CN3CCN(c4ccccc4)CC3)cc1)C(=O)CO2` [Example 35, 6-(4-Oxo-2-thioxo-thiazolidin-5-ylidenemethyl)-4-[4-(4-phenyl-piperazin-1-ylmethyl)-benzyl]-4H-1,4-benzoxazin-3-one], 12 nM; as for `CC(C)(C)c1ccc(CN2C(=O)COc3ccc(C=C4SC(=S)NC4=O)cc32)cc1` [Example 36, 4-(4-tert-Butyl-benzyl)-6-(4-oxo-2-thioxo-thiazolidin-5-ylidenemethyl)-4H-1,4-benzoxazin-3-one], 2 nM.
For `C[C@@H]1Oc2ccc(C=C3SC(=S)NC3=O)cc2N(Cc2cc(C(C)(C)C)cc(C(C)(C)C)c2)C1=O` [Example 37, (S)-4-(3,5-Di-tert-butyl-benzyl)-2-methyl-6-(4-oxo-2-thioxo-thiazolidin-5-ylidenemethyl)-4H-1,4-benzoxazin-3-one], the 50% inhibitory concentration (IC50) worked out at 1620 nM.
`O=C1NC(=S)SC1=Cc1ccc2c(c1)N(Cc1cccc(-c3ccccc3)c1)C(=O)CO2` [Example 38, 4-Biphenyl-3-ylmethyl-6-(4-oxo-2-thioxo-thiazolidin-5-ylidenemethyl)-4H-1,4-benzoxazin-3-one]: the IC50 was 6 nM.
`Cc1cc(CN2C(=O)COc3ccc(C=C4SC(=S)NC4=O)cc32)cc(C)c1CN1CCOCC1` [Example 39, 4-(3,5-Dimethyl-4-morpholin-4-ylmethyl-benzyl)-6-(4-oxo-2-thioxo-thiazolidin-5-ylidenemethyl)-4H-1,4-benzoxazin-3-one]: the half-inhibitory concentration (IC50) came out at 335 nM.
As for `O=C1NC(=S)SC1=Cc1ccc2c(c1)N(Cc1cccc(I)c1)C(=O)CO2` [Example 40, 4-(3-Iodo-benzyl)-6-(4-oxo-2-thioxo-thiazolidin-5-ylidenemethyl)-4H-1,4-benzoxazin-3-one], the figure is 15 nM.
For `O=C1NC(=S)SC1=Cc1ccc2c(c1)N(Cc1cc(Br)cc(I)c1)C(=O)CO2` [Example 41, 4-(3-Bromo-5-iodo-benzyl)-6-(4-oxo-2-thioxo-thiazolidin-5-ylidenemethyl)-4H-1,4-benzoxazin-3-one], the IC50 stood at 61 nM.
As for `Cc1cc(CN2CCOCC2)cc(CN2C(=O)COc3ccc(C=C4SC(=S)NC4=O)cc32)c1` [Example 42, 4-(3-Methyl-5-morpholin-4-ylmethyl-benzyl)-6-(4-oxo-2-thioxo-thiazolidin-5-ylidenemethyl)-4H-1,4-benzoxazin-3-one], the figure is 41 nM; as for `O=C1NC(=S)SC1=Cc1ccc2c(c1)N(Cc1cc(-c3ccccc3)cc(-c3ccccc3)c1)C(=O)CO2` [Example 43, 6-(4-Oxo-2-thioxo-thiazolidin-5-ylidenemethyl)-4-1,1′,3′,1″-terphenyl-5′-ylmethyl-4H-1,4-benzoxazin-3-one], 1440 nM.
Take `O=C1NC(=S)SC1=Cc1ccc2c(c1)N(Cc1cc(OS(=O)(=O)C(F)(F)F)cc(OS(=O)(=O)C(F)(F)F)c1)C(=O)CO2` [Example 44, Trifluoro-methanesulfonic acid 3-[3-oxo-6-(4-oxo-2-thioxo-thiazolidin-5-ylidenemethyl)-2,3-dihydro-1,4-benzoxazin-4-ylmethyl]-5-trifluoromethanesulfonyloxy-phenyl ester]: the IC50 was found to be 265 nM.
Then `CC(C)(C)c1cc(CN2C(=O)COc3ccc(C=C4SC(=S)NC4=O)cc32)cc(C(C)(C)C)n1` [Example 45, 4-(2,6-Di-tert-butyl-pyridin-4-ylmethyl)-6-(4-oxo-2-thioxo-thiazolidin-5-ylidenemethyl)-4H-1,4-benzoxazin-3-one], with 336 nM.
As to `O=C1NC(=S)SC1=Cc1cc(F)c2c(c1)N(Cc1ccccc1)C(=O)CO2` [Example 46, 4-Benzyl-8-fluoro-6-(4-oxo-2-thioxo-thiazolidin-5-ylidenemethyl)-4H-1,4-benzoxazin-3-one], the half-maximal inhibitory concentration (IC50) is 8 nM.
Then `CC(C)(C)c1cc(CN2C(=O)COc3c(Cl)cc(C=C4SC(=S)NC4=O)cc32)cc(C(C)(C)C)c1` [Example 47, 8-Chloro-4-(3,5-di-tert-butyl-benzyl)-6-(4-oxo-2-thioxo-thiazolidin-5-ylidenemethyl)-4H-1,4-benzoxazin-3-one], with 320 nM.
Take `CN1CCN(Cc2cccc(CN3C(=O)COc4ccc(C=C5SC(=S)NC5=O)cc43)c2)CC1` [Example 48, 4-[3-(4-Methyl-piperazin-1-ylmethyl)-benzyl]-6-(4-oxo-2-thioxo-thiazolidin-5-ylidenemethyl)-4H-1,4-benzoxazin-3-one]: the half-inhibitory concentration (IC50) stood at 42 nM.
`O=C1COc2c(Cl)cc(C=C3SC(=S)NC3=O)cc2N1` [Example 49, 8-Chloro-6-(4-oxo-2-thioxo-thiazolidin-5-ylidenemethyl)-4H-1,4-benzoxazin-3-one]: the IC50 came out at 61 nM.
As for `O=C1NC(=S)SC1=Cc1cc(Cl)c2c(c1)N(Cc1ccccc1)C(=O)CO2` [Example 50, 4-Benzyl-8-chloro-6-(4-oxo-2-thioxo-thiazolidin-5-ylidenemethyl)-4H-1,4-benzoxazin-3-one], the figure is 10 nM; as for `COc1cc(C=C2SC(=S)NC2=O)cc2c1OCC(=O)N2Cc1cc(C(C)(C)C)cc(C(C)(C)C)c1` [Example 51, 4-(3,5-Di-tert-butyl-benzyl)-8-methoxy-6-(4-oxo-2-thioxo-thiazolidin-5-ylidenemethyl)-4H-1,4-benzoxazin-3-one], 165 nM.

As a reminder, the IC50 is the point on the concentration scale where inhibition reaches its midpoint.
